{
  "source": "patent US20150265614A1",
  "about": "“ORAL PREPARATION AND METHOD FOR PRODUCING THE SAME” (CHUNG-ANG UNIVERSITY INDUSTRY-ACADEMY COOPERATION FOUNDATION, priority 2012, published 2015)",
  "experiment": "laser scattering particle size analysis of naproxen crystal particles",
  "assay_type": "physicochemical",
  "details": "HORIBA LA-910 laser scattering particle size analyzer",
  "text": "The sizes of the crystal particles of naproxen prepared in Examples 6 and 7 and Comparative Example 2 were observed. Specifically, the degree of dispersion of the particle sizes of a nonsteroidal anti-inflammatory drug (NSAID) agent naproxen ((+)-(S)-2-(6-methoxynaphthalen-2-yl)propanoic acid) was observed by using HORIBA LA-910 LASER SCATTERING PARTICLE SIZE ANALYZER. The observation results are each illustrated in FIGS. 16 to 18.",
  "data": [
    {"molecule": "COc1ccc2cc([C@H](C)C(=O)O)ccc2c1", "note": "[Comparative Example 2, (+)-(s)-2-(6-methoxynaphthalen-2-yl)propanoic acid]", "values": [
      {"measurement": "average particle diameter / average crystal size of naproxen", "result": 9.5, "unit": "μm"}
    ]}
  ]
}
